Key:
[1] = refractive index (Na D-line) (dimensionless); xn = mol fraction of the nth substance listed; conditions: 99 kPa, Liquid, Abbe refractometer
[2] = relative permittivity at various frequencies (dimensionless); xn = mol fraction of the nth substance listed; conditions: 99 kPa, Liquid, Frequency=2 MHz, Parallel plate capacitor

CC(C)(C)Cl [2-chloro-2-methylpropane] + CCCCCC
Conditions	refractive index, 283.15 K	refractive index, 298.15 K	refractive index, 313.15 K	relative permittivity, 283.15 K	relative permittivity, 298.15 K	relative permittivity, 313.15 K
[1], x2 = 0	1.39115	1.38225	1.37312	–	–	–
[1], x2 = 0.048	1.39005	1.38118	1.37209	–	–	–
[1], x2 = 0.0978	1.38908	1.38022	1.37118	–	–	–
[1], x2 = 0.1998	1.38741	1.3786	1.36961	–	–	–
[1], x2 = 0.3018	1.38592	1.37722	1.36829	–	–	–
[1], x2 = 0.405	1.38463	1.37598	1.36716	–	–	–
[1], x2 = 0.5059	1.38354	1.37491	1.36616	–	–	–
[1], x2 = 0.6043	1.38258	1.37407	1.3654	–	–	–
[1], x2 = 0.7077	1.38181	1.37335	1.36477	–	–	–
[1], x2 = 0.806	1.38122	1.37282	1.36433	–	–	–
[1], x2 = 0.9095	1.38081	1.37249	1.36409	–	–	–
[1], x2 = 0.95	1.38066	1.37236	1.36401	–	–	–
[2], x2 = 0	–	–	–	10.429	9.67	8.952
[2], x2 = 0.0467	–	–	–	9.841	9.132	8.468
[2], x2 = 0.099	–	–	–	9.191	8.543	7.946
[2], x2 = 0.2084	–	–	–	7.892	7.37	6.883
[2], x2 = 0.2972	–	–	–	6.892	6.468	6.073
[2], x2 = 0.399	–	–	–	5.897	5.552	5.239
[2], x2 = 0.4982	–	–	–	5.016	4.749	4.514
[2], x2 = 0.6015	–	–	–	4.212	4.01	3.842
[2], x2 = 0.7009	–	–	–	3.543	3.398	3.283
[2], x2 = 0.8046	–	–	–	2.928	2.833	2.749
[2], x2 = 0.8999	–	–	–	2.417	2.362	2.308
[2], x2 = 0.9502	–	–	–	2.149	2.116	2.08

CCC(C)Cl (centres undefined) [2-chlorobutane] + CCCCCCC
Conditions	refractive index, 283.15 K	refractive index, 298.15 K	refractive index, 313.15 K	relative permittivity, 283.15 K	relative permittivity, 298.15 K	relative permittivity, 313.15 K
[1], x2 = 0	1.40226	1.39404	1.38562	–	–	–
[1], x2 = 0.0483	1.40141	1.39319	1.3848	–	–	–
[1], x2 = 0.1024	1.40056	1.39238	1.38401	–	–	–
[1], x2 = 0.2021	1.39912	1.391	1.38268	–	–	–
[1], x2 = 0.303	1.39778	1.3897	1.38144	–	–	–
[1], x2 = 0.4031	1.3966	1.38859	1.38038	–	–	–
[1], x2 = 0.5066	1.39562	1.38765	1.37951	–	–	–
[1], x2 = 0.5998	1.39489	1.38699	1.3789	–	–	–
[1], x2 = 0.7051	1.39429	1.38642	1.37841	–	–	–
[1], x2 = 0.8055	1.39382	1.38603	1.37807	–	–	–
[1], x2 = 0.9123	1.39337	1.38563	1.37773	–	–	–
[1], x2 = 0.9433	1.39322	1.38549	1.37761	–	–	–
[2], x2 = 0	–	–	–	9.323	8.652	8.07
[2], x2 = 0.0498	–	–	–	8.838	8.22	7.684
[2], x2 = 0.101	–	–	–	8.296	7.73	7.247
[2], x2 = 0.1985	–	–	–	7.191	6.75	6.373
[2], x2 = 0.3008	–	–	–	6.131	5.792	5.51
[2], x2 = 0.3994	–	–	–	5.252	5	4.774
[2], x2 = 0.503	–	–	–	4.471	4.283	4.1
[2], x2 = 0.6009	–	–	–	3.84	3.698	3.56
[2], x2 = 0.7053	–	–	–	3.268	3.165	3.063
[2], x2 = 0.8026	–	–	–	2.79	2.731	2.659
[2], x2 = 0.9027	–	–	–	2.352	2.309	2.276
[2], x2 = 0.9463	–	–	–	2.164	2.133	2.108

Reference: the NIST ThermoML archive (doi:10.1016/j.jct.2015.03.001)
